In patent publication US20080166323A1, “Activators of Hexosamine Biosynthesis as Inhibitors of Injury Induced by Ischemia or Hermorrhagic Shock” (UAB RESEARCH FOUNDATION, priority 2004, published 2008):

What was measured:
[1] = system: rat model of trauma-hemorrhage and resuscitation; assay: trauma/hemorrhage mimicking the field, Example 2 (glucosamine only during resuscitation); format: in vivo
Description: The following experiments were conducted using a model of soft tissue trauma-hemorrhage (T-H) as described in Ba, et al., Crit. Care Med (2000) 28(8):2837-2842; Chaudry, et al., Can J Physiol Pharmacol (1975) 53(5):859-865; Ma, et al., Am J Physiol Gastrointest Liver Physiol (2003) 284(1):G107-G115; and Harkema and Chaudry, Crit. Care Med (1992) 20(2):263-275. Male rats were fasted for 16 h and divided into three groups: (1) sham (trauma only); (2) T-H (trauma with subsequent hemorrhage and resuscitation); and (3) G-T-H (trauma with subsequent hemorrhage and resuscitation in the presence of glucosamine). All groups underwent a 5 cm ventral midline laparotomy to induce soft-tissue trauma and were cannulated in both femoral arteries and the right femoral vein. The T-H and G-T-H groups received an infusion of 3 mls over 30 minutes of Ringer's lactate (RL) containing, in the G-T-H group only, 10 mM glucosamine. These two groups were then bled to a mean arterial pressure of 40 mm Hg within 10 minutes and maintained at that pressure for 80 minutes. The T-H group was then infused with 1 ml RL over 10 minutes, while in the G-T-H group the infusate contained an iso-osmotic solution of 75 mM glucosamine (pH 7.4) in 50% RL. The two groups were then resuscitated with four times the maximum hemorrhage volume over a period of 60 minutes with RL (T-H) or RL containing 10 mM glucosamine (G-T-H). Sham-operated animals underwent the same surgical procedure but were neither bled nor resuscitated. Two hours post-resuscitation, a catheter was inserted into the left ventricle via the right carotid artery. Organ blood flows were determined using radioactive microspheres. Cardiac function and blood parameters were also assessed. The data for these experiments are shown in Tables 1 and 2 (values are mean ±standard error of the mean).
A second experiment was performed in order to mimic a trauma/hemorrhage in the field. There were no treatments in any of the three groups prior to trauma/hemorrhage. The T-H and G-T-H groups were partially resuscitated identically with two times the maximum hemorrhage volume over a period of 30 minutes. In the G-T-H group, a 1 ml bolus containing an iso-osmotic solution of 75 mM glucosamine (pH 7.4) in 50% RL was administered, while in the T-H group this bolus contained only RL. This was then followed with two times the maximum hemorrhage volume over a period of 30 minutes with RL (T-H) or RL containing 10 mM glucosamine (G-T-H). Sham-operated animals underwent the same surgical procedure but were neither bled nor resuscitated. The data for this experiment are shown in Tables 3 and 4 (values are mean ±standard error of the mean).

[2] = system: UDP-GlcNAc; assay: UDP-GlcNAc pools in isolated hearts; settings: 5 mM
Description: In the experiments above with isolated hearts, glucosamine was protective after only a ten minute pre-incubation. While not wishing to be bound by theory, the mechanism believed to be responsible for the protection is an increase in concentration of an intracellular metabolite of the HBP, which results in an increase in protein-associated O-GlcNAc. […] Increases at ten minutes were 47%. With respect to the second point, experiments were performed in which a monoclonal antibody specific for O-GlcNAc on proteins (CTD110) (Corner, et al, Anal Biochem (2001) 293(2):169-177) was used in an immunoblotting protocol. The specificity of this antibody for O-GlcNAc-containing epitopes is verified in each experiment by the inclusion of 10 mM GlcNAc along with the CTD110 antibody on parallel samples. These samples show no staining (data not shown). CTD110 immunoblots were performed on extracts from isolated hearts following a ten-minute perfusion with buffer or buffer containing 5 mM glucosamine (FIG. 8). […] Intriguingly, one group of newly appearing proteins has molecular masses near 70 kDa and another around 90 kDa. […] Another family of heat shock proteins, HSP-90, has a molecular mass near 90 kDa (Nollen and Morimoto, J Cell Sci (2002) 115(Pt 14):2809-2816). Thus, O-GlcNAc bearing proteins appear to be responsible for the protection.

[3] = rat, G-T-H (n = 8), 2 h after T-H and resuscitation, Example 2, mean ± SEM
[4] = rat, G-T-H (n = 8), 2 h after T-H, glucosamine only during resuscitation, mean ± SEM

N[C@H]1C(O)O[C@H](CO)[C@@H](O)[C@@H]1O (stereo partly drawn) [glucosamine]
protection in trauma/hemorrhage ([1]; glucosamine only during resuscitation, Example 2): remarkably protective
Regional Blood Flow: Brain [1, 3]: 151.58 ± 13.97 ml/min/100 g tissue
Regional Blood Flow: Cardiac [1, 3]: 933.65 ± 114.73 ml/min/100 g tissue
Regional Blood Flow: Cecum [1, 3]: 86.39 ± 10.70 ml/min/100 g tissue
Regional Blood Flow: Gastric [1, 3]: 71.08 ± 6.84 ml/min/100 g tissue
Regional Blood Flow: Hepatic Artery [1, 3]: 45.10 ± 6.58 ml/min/100 g tissue
Regional Blood Flow: Large Intestine [1, 3]: 96.83 ± 6.90 ml/min/100 g tissue
Regional Blood Flow: Lung [1, 3]: 29.71 ± 4.87 ml/min/100 g tissue
Regional Blood Flow: Mesenteric [1, 3]: 43.12 ± 9.56 ml/min/100 g tissue
Regional Blood Flow: Muscle [1, 3]: 32.97 ± 5.00 ml/min/100 g tissue
Regional Blood Flow: Pancreatic [1, 3]: 52.08 ± 5.53 ml/min/100 g tissue
Regional Blood Flow: Portal Vein [1, 3]: 211.57 ± 23.79 ml/min/100 g tissue
Regional Blood Flow: Renal [1, 3]: 472.07 ± 49.40 ml/min/100 g tissue
Regional Blood Flow: Skin [1, 3]: 11.65 ± 1.25 ml/min/100 g tissue
Regional Blood Flow: Small Intestine [1, 3]: 233.60 ± 27.07 ml/min/100 g tissue
Regional Blood Flow: Splenic [1, 3]: 54.77 ± 4.44 ml/min/100 g tissue
Regional Blood Flow: Thymus [1, 3]: 40.70 ± 4.96 ml/min/100 g tissue
Regional Blood Flow: Total Hepatic [1, 3]: 256.67 ± 27.12 ml/min/100 g tissue
+dp/dt [1, 4]: 13656 ± 7786 mm Hg/sec
Cardiac Output [1, 4]: 33.49 ± 2.12 ml/min 100 g body wt
Heart Rate [1, 4]: 394.50 ± 13.13 beat/minute
Mean Arterial Pressure [1, 4]: 97.88 ± 4.19 mm Hg
Oxygen Consumption [1, 4]: 0.93 ± 0.23 ml/min 100 g body wt
Oxygen Delivery [1, 4]: 2.52 ± 0.17 ml/min 100 g body wt
Oxygen Extraction [1, 4]: 34.48 ± 7.45%
Stroke volume [1, 4]: 84.95 ± 4.66 μl/beat/100 g body wt
Total Peripheral Resistance [1, 4]: 3.05 ± 0.31 mm Hg/ml/min/100 g body wt
−dp/dt [1, 4]: 8549 ± 549 mm Hg/sec
increase in UDP-GlcNAc pools ([2]; 30 minute incubation): about 75%
increase in UDP-GlcNAc pools ([2]; ten minutes): 47%
